Test results: ChEMBL document CHEMBL5303573, “Mapping human microbiome drug metabolism by gut bacteria and their genes” (Nature, 2019)

Assays:
[1] = The drug is tested on Ruminococcus gnavus strain: ATCC29149 for biotransformation. The drug concentrations were measured before and after a 12-h incubation by liquid-chromatography-coupled mass spectrometry (LC–MS); settings: mediterraneibacter gnavus, 2 µM
[2] = The drug is tested on Edwardsiella tarda strain: ATCC23685 for biotransformation. The drug concentrations were measured before and after a 12-h incubation by liquid-chromatography-coupled mass spectrometry (LC–MS); settings: 2 µM
[3] = bacteroides thetaiotaomicron, 12 h, 2 µM
Description: The drug is tested on Bacteroides thetaiotaomicron strain: 3731 for biotransformation. The drug concentrations were measured before and after a 12-h incubation by liquid-chromatography-coupled mass spectrometry (LC–MS)

[4] = bacteroides intestinalis, 12 h, 2 µM
Description: The drug is tested on Bacteroides intestinalis strain: DSM17393 for biotransformation. The drug concentrations were measured before and after a 12-h incubation by liquid-chromatography-coupled mass spectrometry (LC–MS)

[5] = The drug is tested on Bacteroides fragilis strain: HMW610 for biotransformation. The drug concentrations were measured before and after a 12-h incubation by liquid-chromatography-coupled mass spectrometry (LC–MS); settings: 2 µM
[6] = anaerostipes sp., 12 h, 2 µM
Description: The drug is tested on Anaerostipes sp. strain: fecal isolate for biotransformation. The drug concentrations were measured before and after a 12-h incubation by liquid-chromatography-coupled mass spectrometry (LC–MS)

[7] = The drug is tested on Anaerotruncus colihominis strain: DSM17241 for biotransformation. The drug concentrations were measured before and after a 12-h incubation by liquid-chromatography-coupled mass spectrometry (LC–MS); settings: 2 µM
[8] = The drug is tested on Collinsella intestinalis strain: DSM13280 for biotransformation. The drug concentrations were measured before and after a 12-h incubation by liquid-chromatography-coupled mass spectrometry (LC–MS); settings: 2 µM
[9] = The drug is tested on Blautia luti strain: DSM14534 for biotransformation. The drug concentrations were measured before and after a 12-h incubation by liquid-chromatography-coupled mass spectrometry (LC–MS); type: ADME; set-up: dose 2 uM, timepoint 0 vs 12 hours; settings: 2 µM
[10] = The drug is tested on Providencia stuartii strain: ATCC25827 for biotransformation. The drug concentrations were measured before and after a 12-h incubation by liquid-chromatography-coupled mass spectrometry (LC–MS); settings: 2 µM
[11] = The drug is tested on Bacteroides pectinophilus strain: ATCC43243 for biotransformation. The drug concentrations were measured before and after a 12-h incubation by liquid-chromatography-coupled mass spectrometry (LC–MS); settings: 2 µM
[12] = bacteroides fragilis, 12 h, 2 µM
Description: The drug is tested on Bacteroides fragilis strain: NCTC 9343 for biotransformation. The drug concentrations were measured before and after a 12-h incubation by liquid-chromatography-coupled mass spectrometry (LC–MS)

[13] = The drug is tested on Bacteroides dorei strain: DSM17855 for biotransformation. The drug concentrations were measured before and after a 12-h incubation by liquid-chromatography-coupled mass spectrometry (LC–MS); settings: phocaeicola dorei, 2 µM
[14] = segatella copri, 12 h, 2 µM
Description: The drug is tested on Prevotella copri strain: DSM18205 for biotransformation. The drug concentrations were measured before and after a 12-h incubation by liquid-chromatography-coupled mass spectrometry (LC–MS)

[15] = The drug is tested on Bacteroides sp. WH2 strain: WH2 for biotransformation. The drug concentrations were measured before and after a 12-h incubation by liquid-chromatography-coupled mass spectrometry (LC–MS); settings: bacteroides sp. wh2, 12 h, 2 µM
[16] = The drug is tested on Clostridium sp. strain: fecal isolate for biotransformation. The drug concentrations were measured before and after a 12-h incubation by liquid-chromatography-coupled mass spectrometry (LC–MS); settings: 2 µM
[17] = The drug is tested on Bifidobacterium longum subsp. Infantis strain: CCUG52486 for biotransformation. The drug concentrations were measured before and after a 12-h incubation by liquid-chromatography-coupled mass spectrometry (LC–MS); settings: 2 µM
[18] = parabacteroides distasonis, 12 h, 2 µM
Description: The drug is tested on Parabacteroides distasonis strain: ATCC8503 for biotransformation. The drug concentrations were measured before and after a 12-h incubation by liquid-chromatography-coupled mass spectrometry (LC–MS)

Bacterial Biotransformation [5]	SMILES	Bacterial Biotransformation [1]	Bacterial Biotransformation [2]	Bacterial Biotransformation [3]	Bacterial Biotransformation [4]	Bacterial Biotransformation [6]	Bacterial Biotransformation [7]	Bacterial Biotransformation [8]	Bacterial Biotransformation [9]	Bacterial Biotransformation [10]	Bacterial Biotransformation [11]	Bacterial Biotransformation [12]	Bacterial Biotransformation [13]	Bacterial Biotransformation [14]	Bacterial Biotransformation [15]	Bacterial Biotransformation [16]	Bacterial Biotransformation [17]	Bacterial Biotransformation [18]
Compound NOT metabolized	CN1CCc2c(c3ccccc3n2Cc2ccccc2)C1.CN1CCc2c(c3ccccc3n2Cc2ccccc2)C1.O=S(=O)(O)c1cccc2c(S(=O)(=O)O)cccc12	Compound NOT metabolized	Compound NOT metabolized	Compound NOT metabolized	Compound NOT metabolized	Compound NOT metabolized	Compound NOT metabolized	Compound NOT metabolized	Compound NOT metabolized	Compound NOT metabolized	Compound NOT metabolized	Compound NOT metabolized	Compound NOT metabolized	Compound NOT metabolized	Compound NOT metabolized	Compound NOT metabolized	Compound NOT metabolized	
	CNCC[C@H](Oc1cccc2ccccc12)c1cccs1 [DULOXETINE]	Compound NOT metabolized		Compound NOT metabolized	Compound NOT metabolized	Compound NOT metabolized	Compound NOT metabolized	Compound NOT metabolized	Compound NOT metabolized		Compound NOT metabolized	Compound metabolized	Compound metabolized	Compound metabolized		Compound metabolized	Compound NOT metabolized	Compound NOT metabolized
Compound NOT metabolized	CN1CCC(=C2c3ccccc3CC(=O)c3sccc32)CC1.O=C(O)/C=C/C(=O)O [KETOTIFEN FUMARATE]	Compound NOT metabolized	Compound NOT metabolized	Compound NOT metabolized	Compound NOT metabolized	Compound NOT metabolized	Compound NOT metabolized	Compound NOT metabolized	Compound NOT metabolized	Compound NOT metabolized	Compound NOT metabolized	Compound NOT metabolized	Compound NOT metabolized	Compound NOT metabolized	Compound NOT metabolized	Compound NOT metabolized	Compound NOT metabolized	Compound NOT metabolized
Compound NOT metabolized	Nc1nnc(-c2cccc(Cl)c2Cl)c(N)n1 [LAMOTRIGINE]	Compound NOT metabolized	Compound NOT metabolized	Compound NOT metabolized	Compound NOT metabolized	Compound NOT metabolized	Compound NOT metabolized	Compound NOT metabolized	Compound NOT metabolized	Compound NOT metabolized	Compound NOT metabolized		Compound NOT metabolized	Compound NOT metabolized	Compound NOT metabolized	Compound NOT metabolized		
Compound NOT metabolized	CN1CCOC(c2ccccc2)c2ccccc2C1 (configuration not stated) [NEFOPAM]	Compound NOT metabolized	Compound NOT metabolized	Compound NOT metabolized	Compound NOT metabolized	Compound NOT metabolized	Compound NOT metabolized	Compound NOT metabolized	Compound NOT metabolized	Compound NOT metabolized	Compound NOT metabolized	Compound NOT metabolized		Compound NOT metabolized	Compound NOT metabolized		Compound NOT metabolized	Compound NOT metabolized
	COc1ccc(Cc2nccc3cc(OC)c(OC)cc23)cc1OC [PAPAVERINE]	Compound NOT metabolized	Compound NOT metabolized	Compound NOT metabolized	Compound NOT metabolized	Compound NOT metabolized	Compound NOT metabolized	Compound NOT metabolized	Compound NOT metabolized	Compound NOT metabolized	Compound NOT metabolized		Compound metabolized	Compound NOT metabolized	Compound NOT metabolized	Compound NOT metabolized	Compound NOT metabolized	

SMILES	Bacterial Biotransformation [5]	Bacterial Biotransformation [1]	Bacterial Biotransformation [2]	Bacterial Biotransformation [3]	Bacterial Biotransformation [4]	Bacterial Biotransformation [6]	Bacterial Biotransformation [7]	Bacterial Biotransformation [8]	Bacterial Biotransformation [9]	Bacterial Biotransformation [10]	Bacterial Biotransformation [11]	Bacterial Biotransformation [12]	Bacterial Biotransformation [13]	Bacterial Biotransformation [14]	Bacterial Biotransformation [15]	Bacterial Biotransformation [16]	Bacterial Biotransformation [17]	Bacterial Biotransformation [18]
CCN(CC)C(=O)C1(c2ccccc2)CC1CN (configuration not stated)	Compound NOT metabolized	Compound NOT metabolized	Compound NOT metabolized	Compound NOT metabolized	Compound NOT metabolized	Compound NOT metabolized	Compound NOT metabolized	Compound NOT metabolized	Compound NOT metabolized	Compound NOT metabolized	Compound NOT metabolized	Compound NOT metabolized	Compound NOT metabolized	Compound NOT metabolized	Compound NOT metabolized	Compound NOT metabolized	Compound NOT metabolized	Compound NOT metabolized
CN(C)CC(c1ccc(O)cc1)C1(O)CCCCC1.O=C(O)CCC(=O)O (configuration not stated) [DESVENLAFAXINE SUCCINATE]	Compound NOT metabolized	Compound NOT metabolized	Compound NOT metabolized	Compound NOT metabolized	Compound NOT metabolized	Compound NOT metabolized	Compound NOT metabolized	Compound NOT metabolized	Compound NOT metabolized	Compound NOT metabolized	Compound NOT metabolized	Compound NOT metabolized	Compound NOT metabolized	Compound NOT metabolized	Compound NOT metabolized	Compound NOT metabolized	Compound NOT metabolized	Compound NOT metabolized
COCCc1ccc(OCC(O)CNC(C)C)cc1.COCCc1ccc(OCC(O)CNC(C)C)cc1.O=C(O)C(O)C(O)C(=O)O (configuration not stated) [METOPROLOL TARTRATE]	Compound NOT metabolized	Compound NOT metabolized	Compound NOT metabolized		Compound NOT metabolized	Compound NOT metabolized	Compound NOT metabolized	Compound NOT metabolized	Compound NOT metabolized	Compound NOT metabolized	Compound NOT metabolized	Compound NOT metabolized	Compound NOT metabolized		Compound NOT metabolized	Compound NOT metabolized	Compound NOT metabolized	Compound NOT metabolized
